SMILES strings stand for the structures.

With `CC[C@H](C)[C@H](N)C(=O)O` (racemic), the solubility (mole fraction) (commonly the moles of solute divided by all moles in the saturated solution) runs as follows: (in DMF, 278.15 K) 0.00023; (in DMF, 283.15 K) 0.00024; (in DMF, 288.15 K) 0.00025; (in DMF, 293.15 K) 0.00026; (in DMF, 298.15 K) 0.00027; (in DMF, 303.15 K) 0.00028. Moreover, the solubility (mole fraction) is, setting by setting: (in DMF, 308.15 K) 0.00029; (in DMF, 313.15 K) 0.0003; (in DMF, 318.15 K) 0.00031; (in water, 278.15 K) 0.0025; (in water, 283.15 K) 0.00269; (in water, 288.15 K) 0.0027. In addition, the solubility (mole fraction) by setting is: (in water, 293.15 K) 0.0029; (in water, 298.15 K) 0.003; (in water, 303.15 K) 0.0032; (in water, 308.15 K) 0.0034; (in water, 313.15 K) 0.0036; (in water, 318.15 K) 0.0038.
For the compound `CC(C)CC(N)C(=O)O` (racemic), the solubility (mole fraction) was 0.00011 (in DMF, 278.15 K); 0.00012 (in DMF, 283.15 K); 0.00014 (in DMF, 288.15 K); 0.00015 (in DMF, 293.15 K); 0.00017 (in DMF, 298.15 K); 0.00018 (in DMF, 303.15 K). Besides, the solubility (mole fraction) is, setting by setting: (in DMF, 308.15 K) 0.0002; (in DMF, 313.15 K) 0.00021; (in DMF, 318.15 K) 0.00023; (in water, 278.15 K) 0.0011; (in water, 283.15 K) 0.00115; (in water, 288.15 K) 0.00124. For the same compound, the solubility (mole fraction) is, setting by setting: (in water, 293.15 K) 0.00128; (in water, 298.15 K) 0.00135; (in water, 303.15 K) 0.00144; (in water, 308.15 K) 0.00155; (in water, 313.15 K) 0.00164; (in water, 318.15 K) 0.00178.

(Values after BigSolDB 2.1.)
